For assay [1], the target named is JAK1 (Homo sapiens (Human), UniProt P23458). As to the kind of experiment: JAK1 Kinase Assay Protocol. The note with it: GST-JAK1; ATP 100 μM; Caliper LabChip; read-out: LLE_JAK1 (IC50). Type of assay: biochemical. How it is done:
JAK1 Kinase Assay Protocol
The assay reactions were performed in U-bottom 384-well plates. The final assay volume was 30 μl prepared from 15 μl additions of enzyme and substrates (fluoresceinated peptide and ATP) and test compounds in assay buffer (20 mM HEPES pH 7.4, 10 mM MgCl2, 25 mM beta-glycerol phosphate, 0.015% Brij35 and 4 mM DTT). The reaction was initiated by the combination of GST-JAK1 enzyme with substrates and test compounds. The reactions were incubated at room temperature for 3 hours and terminated by adding 60 μl of 35 mM EDTA to each sample. […] The final concentration of reagents in the assays was: ATP, 100 μM; fluoresceinated peptide, 1.5 μM; GST-JAK1, 12.5 nM; and DMSO, 1.6%. […] Compounds were dissolved at 10 mM in dimethylsulfoxide (DMSO) and evaluated at eleven concentrations. IC50 values were derived by non-linear regression analysis.

The target of assay [2] is JAK3 (Homo sapiens (Human), UniProt P52333). As to the kind of experiment: JAK3 Kinase Assay (Caliper / Filter protocols). Type of assay: biochemical. The note with it: JAK3 kinase inhibition; ATP 8 μM; read-out: LLE_JAK3_FB (IC50). How it is done: JAK3 Kinase Assay Protocol (Caliper)
Chain of JAK3 (P52333 whole entry): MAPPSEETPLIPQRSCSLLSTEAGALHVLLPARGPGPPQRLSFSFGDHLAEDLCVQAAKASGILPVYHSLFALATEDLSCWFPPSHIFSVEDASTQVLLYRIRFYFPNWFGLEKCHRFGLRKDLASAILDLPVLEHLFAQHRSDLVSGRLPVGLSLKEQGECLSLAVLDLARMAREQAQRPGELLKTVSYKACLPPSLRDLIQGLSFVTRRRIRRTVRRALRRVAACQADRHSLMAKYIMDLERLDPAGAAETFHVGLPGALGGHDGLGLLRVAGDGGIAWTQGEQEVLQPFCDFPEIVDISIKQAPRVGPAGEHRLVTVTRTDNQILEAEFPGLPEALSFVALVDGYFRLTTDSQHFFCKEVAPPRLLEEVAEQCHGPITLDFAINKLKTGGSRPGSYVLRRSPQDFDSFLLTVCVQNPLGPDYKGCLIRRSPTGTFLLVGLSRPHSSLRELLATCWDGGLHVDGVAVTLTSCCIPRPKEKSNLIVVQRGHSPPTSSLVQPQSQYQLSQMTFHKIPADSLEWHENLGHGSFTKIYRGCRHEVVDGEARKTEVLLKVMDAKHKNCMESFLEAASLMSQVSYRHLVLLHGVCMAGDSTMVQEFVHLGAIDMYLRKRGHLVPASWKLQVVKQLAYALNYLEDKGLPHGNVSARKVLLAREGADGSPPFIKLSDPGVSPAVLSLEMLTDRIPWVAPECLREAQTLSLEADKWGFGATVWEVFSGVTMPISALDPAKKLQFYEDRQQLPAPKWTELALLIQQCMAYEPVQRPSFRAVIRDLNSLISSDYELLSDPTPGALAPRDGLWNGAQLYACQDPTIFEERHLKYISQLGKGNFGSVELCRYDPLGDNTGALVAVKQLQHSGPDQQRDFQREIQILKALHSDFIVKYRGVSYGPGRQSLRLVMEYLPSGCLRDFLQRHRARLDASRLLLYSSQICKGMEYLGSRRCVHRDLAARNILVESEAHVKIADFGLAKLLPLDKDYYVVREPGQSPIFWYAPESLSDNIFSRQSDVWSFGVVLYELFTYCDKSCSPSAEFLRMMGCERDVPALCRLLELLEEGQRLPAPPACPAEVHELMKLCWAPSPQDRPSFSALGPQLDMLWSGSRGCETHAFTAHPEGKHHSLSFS
The assay reactions were performed in U-bottom 384-well plates. […] The reaction was initiated by the combination of GST-JAK3 enzyme with substrates and test compounds. The reactions were incubated at room temperature for 3 hours and terminated by adding 60 μl of 35 mM EDTA to each sample. […] Compounds were dissolved at 10 mM in dimethylsulfoxide (DMSO) and evaluated at eleven concentrations. IC50 values were derived by non-linear regression analysis.
JAK3 Kinase Assay Protocol (Filter)
Kinase reactions consisted of 5 ng of JAK3 enzyme, 30 uM CSKtide substrate, 0.2 μCi ^33P γ-ATP, 8 μM ATP in 30 μl kinase buffer (50 mM Hepes, pH 8.0, 10 mM MgCl2, 1 mM EGTA, 2 mM DTT). Reactions were incubated for 30 minutes at room temperature and stopped by the addition of cold trichloroacetic acid (TCA) to a final concentration of 15%. TCA precipitates were collected onto 384 well phosphocellulose filters (Millipore) using a Platemate to transfer the reaction mixture, washed on an EMBLA plate washer and the filters were quantitated using a TopCount 384-well liquid scintillation counter. […] Compounds were dissolved at 10 mM in dimethylsulfoxide (DMSO) and evaluated at six concentrations, each in triplicate. The final concentration of DMSO in the assay equaled 2%. IC50 values were derived by non-linear regression analysis.

Chain of JAK1 (P23458 whole entry): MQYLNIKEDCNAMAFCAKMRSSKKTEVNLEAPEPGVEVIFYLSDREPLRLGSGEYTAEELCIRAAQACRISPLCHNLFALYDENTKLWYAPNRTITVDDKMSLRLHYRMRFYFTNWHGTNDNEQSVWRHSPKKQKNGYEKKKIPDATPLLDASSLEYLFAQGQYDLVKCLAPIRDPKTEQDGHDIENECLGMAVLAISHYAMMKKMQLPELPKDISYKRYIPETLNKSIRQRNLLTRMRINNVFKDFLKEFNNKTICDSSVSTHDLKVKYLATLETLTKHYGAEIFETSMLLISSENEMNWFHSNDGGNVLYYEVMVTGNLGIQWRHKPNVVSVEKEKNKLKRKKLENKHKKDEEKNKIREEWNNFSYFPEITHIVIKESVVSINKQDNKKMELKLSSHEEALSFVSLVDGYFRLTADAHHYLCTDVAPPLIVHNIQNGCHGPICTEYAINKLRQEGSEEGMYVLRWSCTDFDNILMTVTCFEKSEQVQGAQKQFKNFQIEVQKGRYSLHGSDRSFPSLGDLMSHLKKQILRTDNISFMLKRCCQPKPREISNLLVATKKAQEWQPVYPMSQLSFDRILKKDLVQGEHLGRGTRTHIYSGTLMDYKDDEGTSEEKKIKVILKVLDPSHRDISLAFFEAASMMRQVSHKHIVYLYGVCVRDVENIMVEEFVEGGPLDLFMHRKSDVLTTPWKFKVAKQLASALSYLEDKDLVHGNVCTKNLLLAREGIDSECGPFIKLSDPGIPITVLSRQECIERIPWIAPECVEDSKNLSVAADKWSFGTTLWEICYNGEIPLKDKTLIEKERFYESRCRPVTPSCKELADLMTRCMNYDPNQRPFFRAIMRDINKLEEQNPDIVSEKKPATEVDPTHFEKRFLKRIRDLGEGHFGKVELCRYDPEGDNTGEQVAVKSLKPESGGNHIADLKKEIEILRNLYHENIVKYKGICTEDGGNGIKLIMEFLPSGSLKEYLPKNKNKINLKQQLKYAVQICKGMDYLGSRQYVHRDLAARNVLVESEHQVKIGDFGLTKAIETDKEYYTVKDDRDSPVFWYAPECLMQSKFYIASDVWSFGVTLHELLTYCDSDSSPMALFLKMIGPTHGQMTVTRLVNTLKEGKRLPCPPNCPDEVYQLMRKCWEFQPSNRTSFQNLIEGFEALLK

As for `CC1(C)[C@H](Nc2c(C(N)=O)cnn3cc(NS(C)(=O)=O)cc23)CC[C@@]1(C)O` (racemic) [Example 3], the IC50 (as a rule, the concentration at which inhibition is half-maximal) in assay [1] was 45.8 nM; in assay [2], 6 nM.
For `CC(=O)Nc1cc2c(N[C@@H]3CC[C@@](C)(O)C3(C)C)c(C(N)=O)cnn2c1` (racemic) [Example 7] the same measures were 8.2 nM and 0.9 nM.
`CC1(C)[C@H](Nc2c(C(N)=O)cnn3cc(NS(=O)(=O)c4ccccc4)cc23)CC[C@@]1(C)O` (racemic) [Example 22]: the IC50 amounted to 239 nM in assay [1] and 22.1 nM in assay [2].
For `CC1(C)[C@H](Nc2c(C(N)=O)cnn3cc(NS(=O)(=O)c4ccc(Cl)cc4)cc23)CC[C@@]1(C)O` (racemic) [Example 23] the same measures were 258 nM and 23.4 nM.
Turning to `COc1ccc(S(=O)(=O)Nc2cc3c(N[C@@H]4CC[C@@](C)(O)C4(C)C)c(C(N)=O)cnn3c2)cc1` (racemic) [Example 24], in assay [2], the IC50 was found to be 34.2 nM.
With `CCS(=O)(=O)Nc1cc2c(N[C@@H]3CC[C@@](C)(O)C3(C)C)c(C(N)=O)cnn2c1` (racemic) [Example 25], the IC50 was found to be 83.9 nM in assay [1] and 8.1 nM in assay [2].
For the compound `CC(C)c1ccccc1-c1cc2c(N[C@@H]3CCC[C@]3(C)F)c(C(N)=O)cnn2c1` (racemic) [Example 60], the IC50 in assay [1] stood at 253 nM; in assay [2] it was 136 nM.
With `C[C@]1(F)CCC[C@H]1Nc1c(C(N)=O)cnn2cc(-c3cncc4ccccc34)cc12` (racemic) [Example 68], the half-inhibitory concentration (IC50) in assay [2] was 46.4 nM.
For the compound `Cc1cccc(-c2cc3c(N[C@@H]4CCC[C@]4(C)F)c(C(N)=O)cnn3c2)c1` (racemic) [Example 72], the half-inhibitory concentration (IC50) was determined as 1.3 nM in assay [1] and 0.3 nM in assay [2].
On to `C[C@]1(F)CCC[C@H]1Nc1c(C(N)=O)cnn2cc(-c3cccc(C(N)=O)c3)cc12` (racemic) [Example 94], for which the IC50 in assay [1] was determined as 1.4 nM; in assay [2] it was 0.5 nM.
As to `Cn1nccc1-c1cc2c(N[C@@H]3C[C@@H](O)[C@@H](O)C3(C)C)c(C(N)=O)cnn2c1` (racemic) [Example 142], the IC50 was determined as 10.9 nM in assay [1] and 5.6 nM in assay [2].
With `Cn1nccc1-c1cc2c(N[C@@H]3CC[C@](C)(O)C3(C)C)c(C(N)=O)cnn2c1` (racemic) [Example 148], the half-inhibitory concentration (IC50) was 46.4 nM in assay [1] and 25.2 nM in assay [2].
For `C[C@]1(F)CCC[C@H]1Nc1c(C(N)=O)cnn2cc(N3CCCC3=O)cc12` (racemic) [Example 159] the same measures were 3.8 nM and 0.5 nM.
With `C[C@]1(O)CCCC[C@@H]1Nc1c(C(N)=O)cnn2cc(-c3ccccc3)cc12` (racemic) [Example 314, (+/−)-4-(((1S,2S)-2-hydroxy-2-methylcyclohexyl)amino)-6-phenylpyrrolo[1,2-b]-pyridazine-3-carboxamide], the IC50 in assay [1] worked out at 17.4 nM; in assay [2] it was 5.1 nM.
On to `C[C@]1(F)CCC[C@H]1Nc1c(C(N)=O)cnn2cc(N3CCOCC3=O)cc12` (racemic) [Example 318], for which the results for the IC50 in assay [1] and in assay [2] were 13.4 nM and 7.1 nM, respectively.
Consider `CC1(C)[C@@H](Nc2c(C(N)=O)cnn3cc(-c4ccc(C#N)cc4)cc23)CC[C@@]1(C)N` [Example 112], for which the IC50 came out at 12.7 nM in assay [1] and 9.4 nM in assay [2].
For `CC1(C#N)CCCC1Nc1c(C(N)=O)cnn2cc(-c3ccccc3)cc12` (centres unmarked) [Example 123], in that order: 1 nM and 0.2 nM.
In the case of `CC1(C)[C@H](Nc2c(C(N)=O)cnn3cc(-c4ccccc4)cc23)CC[C@]1(C)NS(C)(=O)=O` [Example 129], the IC50 is 2.6 nM in assay [1] and 1 nM in assay [2].
Consider `Cn1nccc1-c1cc2c(N[C@H]3CC[C@@](C)(O)CC3)c(C(N)=O)cnn2c1` [Example 162, 4-((4-hydroxy-4-methylcyclohexyl)amino)-6-(1-methyl-1H-pyrazol-5-yl)pyrrolo[1,2-b]pyridazine-3-carboxamide], for which, in assay [2], the IC50 was determined as 62.7 nM.
As to `C[C@]1(O)CC[C@@H](Nc2c(C(N)=O)cnn3cc(-c4ccccc4C(N)=O)cc23)CC1` [Example 166, 6-(2-carbamoylphenyl)-4-((cis-4-hydroxy-4-methylcyclohexyl)amino)pyrrolo[1,2-b]pyridazine-3-carboxamide], the IC50 came to 72.4 nM in assay [1] and 33.6 nM in assay [2].
For `C[C@]1(O)CC[C@@H](Nc2c(C(N)=O)cnn3cc(-c4ccc(C#N)cc4)cc23)CC1` [Example 167, 6-(4-cyanophenyl)-4-((cis-4-hydroxy-4-methylcyclohexyl)amino)pyrrolo[1,2-b]pyridazine-3-carboxamide] the same measures were 6.1 nM and 1.6 nM.
In the case of `C[C@]1(O)CC[C@@H](Nc2c(C(N)=O)cnn3cc(-c4cncnc4)cc23)CC1` [Example 168, 4-((cis-4-hydroxy-4-methylcyclohexyl)amino)-6-(5-pyrimidinyl)pyrrolo [1,2-b]pyridazine-3-carboxamide], the IC50 came out at 105 nM in assay [1] and 17.1 nM in assay [2].
Consider `COc1cccc(-c2cc3c(NC4C5CC6CC4CC(O)(C6)C5)c(C(N)=O)cnn3c2)c1` (centres unmarked) [Example 176, 4-((5-hydroxyadamantan-2-yl)amino)-6-(3-methoxyphenyl)pyrrolo [1,2-b]pyridazine-3-carboxamide], for which, in assay [2], the IC50 turned out to be 8.9 nM.
Still for that read-out and setting: next, `Cc1cccc(C)c1-c1cc2c(NC3C4CC5CC3CC(O)(C5)C4)c(C(N)=O)cnn2c1` (centres unmarked) [Example 177, 6-(2,6-dimethylphenyl)-4-((5-hydroxyadamantan-2-yl)amino)pyrrolo [1,2-b]pyridazine-3-carboxamide]: 524 nM.
Same read-out and setting: next, `COc1ccccc1-c1cc2c(NC3C4CC5CC3CC(O)(C5)C4)c(C(N)=O)cnn2c1` (centres unmarked) [Example 178, 4-((5-hydroxyadamantan-2-yl)amino)-6-(2-methoxyphenyl)pyrrolo [1,2-b]pyridazine-3-carboxamide]: 1 nM; `Cn1nccc1-c1cc2c(NC3C4CC5CC3CC(O)(C5)C4)c(C(N)=O)cnn2c1` (centres unmarked) [Example 185, 4-((5-hydroxyadamantan-2-yl)amino)-6-(1-methyl-1H-pyrazol-5-yl) pyrrolo[1,2-b] pyridazine-3-carboxamide]: 6.2 nM.
In the case of `Cc1ccc(-c2cc3c(NC4C5CC6CC4CC(O)(C6)C5)c(C(N)=O)cnn3c2)cc1` (centres unmarked) [Example 187, 4-((5-hydroxyadamantan-2-yl)amino)-6-(4-methylphenyl)pyrrolo [1,2-b]pyridazine-3-carboxamide], the IC50 in assay [1] stood at 63.4 nM.
As for `CC1(C)[C@H](Nc2c(C(N)=O)cnn3cc(-c4cccnc4)cc23)CC[C@]1(C)N` [Example 192, 4-(((1R,3S)-3-amino-2,2,3-trimethylcyclopentyl)amino)-6-(3-pyridinyl) pyrrolo[1,2-b]pyridazine-3-carboxamide], the figures for the IC50 in assay [1] and in assay [2] were 0.7 nM and 0.5 nM, respectively.
For `Cc1ccncc1-c1cc2c(N[C@@H]3CC[C@](C)(N)C3(C)C)c(C(N)=O)cnn2c1` [Example 195, 4-(((1R,3S)-3-amino-2,2,3-trimethylcyclopentyl)amino)-6-(4-methyl-3-pyridinyl)pyrrolo[1,2-b] pyridazine-3-carboxamide] the same measures were 1.3 nM and 6.1 nM.
For `CC1(C)[C@H](Nc2c(C(N)=O)cnn3cc(-c4ccc(N5CCCC5)nc4)cc23)CC[C@]1(C)N` [Example 213, 4-(((1R,3S)-3-amino-2,2,3-trimethylcyclopentyl)amino)-6-(6-(1-pyrrolidinyl)-3-pyridinyl)pyrrolo[1,2-b]pyridazine-3-carboxamide], the IC50 amounted to 17.3 nM in assay [1] and 9.5 nM in assay [2].
For `CC1(C)[C@H](Nc2c(C(N)=O)cnn3cc(-c4ccc(C(=O)NC5CC5)cc4)cc23)CC[C@]1(C)N` [Example 221, 4-(((1R,3S)-3-amino-2,2,3-trimethylcyclopentyl)amino)-6-(4-(cyclopropylcarbamoyl)phenyl)pyrrolo[1,2-b] pyridazine-3-carboxamide] the same measures were 0.7 nM and 1.6 nM.
For `CC1(C)[C@H](Nc2c(C(N)=O)cnn3cc(-c4ccccc4C(N)=O)cc23)CC[C@]1(C)N` [Example 255, 4-(((1R,3S)-3-amino-2,2,3-trimethylcyclopentyl)amino)-6-(2-carbamoylphenyl)pyrrolo [1,2-b]pyridazine-3-carboxamide] the same measures were 2.7 nM and 6 nM.
